One experiment addresses T1, human TREM2 (Homo sapiens, UniProt Q9NZC2).
T1 construct: expressed in transfected cells; host or cells: HEK293T (HEK293T-hTREM2 cells)
As to the kind of experiment: Cellular phosphorylation of Syk (AlphaLisa) in HEK293T-hTREM2 cells, TREM2 agonist potency. The conditions noted are these: HEK293 cells expressing human TREM2 and DAP12; pSyk AlphaLisa; Table D. The experiment is classed as cell-based. Here is the method:
In Vitro Measurement of Triggering Receptor Expressed on Myeloid Cells 2 Activity Using Cellular Phosphorylation of Spleen Tyrosine Kinase (“Syk”) Assays
Measurement of TREM2 agonist potency was done using a HEK cell line expressing human TREM2 and DAP12 (HEK293T-hTREM2 cells). Binding of small molecules to, and activation of, TREM2 increases the phosphorylation of Syk. The resultant levels of Syk phosphorylation are measured using a commercial AlphaLisa reagent kit. To perform the assay, HEK-hTREM2 cells were plated at 14,000 cells per well in a 384 well plate, in 25 μL of complete growth media and incubated at 37° C., 5% CO2 for 20-24 hours.
Prior to the assay, test compounds were diluted in the 384 well plates in assay buffer and allowed to equilibrate for 30 minutes. Growth media was removed from cell plates by inversion on blotting paper, and 25 μL of test articles in assay buffer was added to cells. Cells were incubated for 45 minutes at room temperature. After 45 minutes, assay buffer was removed and 10 μL of lysis buffer was added. Plates were shaken for 20 minutes at 350 RPM at room temperature. After complete lysis, AlphaLisa reagents were added to the lysate, and fluourescence intensity was measured using a Perkin Elmer Envision plate reader. Intensities were used to generate a standard curve, and % activation was calculated. Curve fitting was performed using Prism v9 software, log(agonist) vs response—variable slope (four parameters), and EC50s were calculated from the curve fit.
The results presented in Table D have been generated with the in vitro assay described above. This assay may be used to test any of the compounds described herein to assess and characterize a compound's ability to act as an agonist of TREM2.
(In Alpha technology, singlet oxygen from a donor bead excites a nearby acceptor bead.)
T1 sequence (Q9NZC2 19-230): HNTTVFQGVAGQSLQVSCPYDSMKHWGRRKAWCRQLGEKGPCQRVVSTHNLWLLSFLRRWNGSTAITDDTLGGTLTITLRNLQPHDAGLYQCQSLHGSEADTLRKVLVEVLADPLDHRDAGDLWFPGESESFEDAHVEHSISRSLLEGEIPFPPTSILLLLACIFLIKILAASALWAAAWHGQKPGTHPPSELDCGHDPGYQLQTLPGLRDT
T1 sequence (O43914 22-113 partner): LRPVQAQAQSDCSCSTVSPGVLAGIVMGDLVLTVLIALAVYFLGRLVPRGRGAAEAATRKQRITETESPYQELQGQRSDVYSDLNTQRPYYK
The term EC50 denotes the concentration that produces a half-maximal response. Lower therefore signals higher potency in that assay. For `Cc1ccc(-c2nn(CCc3ccccc3)c(=O)c3nc(C)sc23)cc1` [compound 34, 2-methyl-5-phenethyl-7-(p-tolyl)thiazolo[4,5-d]pyridazin-4(5H)-one], the EC50 is 3 to 100 µM.

On to `Nc1nc2c(=O)n(CCc3ccccc3)nc(-c3ccc(Cl)cc3)c2s1` [compound 33, 2-amino-7-(4-chlorophenyl)-5-phenethylthiazolo[4,5-d]pyridazin-4(5H)-one], for which the EC50 was in the range of 3 to 100 µM.

As to `Cc1cc2c(-c3ccc(Cl)cc3)nn(-c3ccnc(C4COC4)c3)c(=O)c2cc1C` [compound 14, 4-(4-chlorophenyl)-6,7-dimethyl-2-(2-(oxetan-3-yl)pyridin-4-yl)phthalazin-1(2H)-one], the EC50 lay within 0.5 to 3 µM.

`Cc1nc2c(=O)n(CCc3ccccc3)nc(-c3ccc(Cl)cc3)c2s1` [compound 28, 7-(4-chlorophenyl)-2-methyl-5-phenethylthiazolo[4,5-d]pyridazin-4(5H)-one] showed an EC50 of 3 to 100 µM.

On to `CN1CCC(n2nc(-c3ccc(Cl)cc3)c3cc(Cl)c(Cl)cc3c2=O)CC1=O` (centres unmarked) [compound 21, 6,7-dichloro-4-(4-chlorophenyl)-2-(1-methyl-2-oxopiperidin-4-yl)phthalazin-1(2H)-one], for which the EC50 fell in the range of 3 to 100 µM.

`Cc1nc2c(=O)n(CC(O)c3ccc(Cl)cc3)nc(-c3ccc(Cl)cc3)c2s1` (centres unmarked) [compound 26, 7-(4-chlorophenyl)-5-(2-(4-chlorophenyl)-2-hydroxyethyl)-2-methylthiazolo[4,5-d]pyridazin-4(5H)-one]: the EC50 lay in the range of 3 to 100 µM.

`Cc1nc2c(=O)n(CCc3ccccc3)nc(-c3ccc(O)cc3)c2s1` [compound 39, 7-(4-hydroxyphenyl)-2-methyl-5-phenethylthiazolo[4,5-d]pyridazin-4(5H)-one]: the EC50 fell in the range of 3 to 100 µM.

Take `Cc1cc2c(-c3ccc(Cl)cc3)nn(-c3ccnc(N4CCN(C(=O)OC(C)(C)C)CC4)c3)c(=O)c2cc1C` [compound 18, tert-butyl 4-(4-(4-(4-chlorophenyl)-6,7-dimethyl-1-oxophthalazin-2(1H)-yl)pyridin-2-yl)piperazine-1-carboxylate]: the half-maximal effective concentration (EC50) fell in the range of 0.5 to 3 µM.

For the compound `Cc1ccc2c(-c3ccc(Cl)cc3)nn(-c3ccc(OC(F)(F)F)cc3)c(=O)c2n1` [compound 23, 5-(4-chlorophenyl)-2-methyl-7-(4-(trifluoromethoxy)phenyl)pyrido[2,3-d]pyridazin-8(7H)-one], the EC50 is 0.5 to 3 µM.

In turn, `CC(C)C(=O)Nc1nc2c(=O)n(CCc3ccccc3)nc(-c3ccc(Cl)cc3)c2s1` [compound 35, N-[7-(4-chlorophenyl)-4-oxo-5-(2-phenylethyl)thiazolo[4,5-d]pyridazin-2-yl]-2-methyl-propanamide] gave an EC50 of 3 to 100 µM.

In the case of `COc1ccc(-c2nn(CCc3ccccc3)c(=O)c3nc(C)sc23)cc1` [compound 40, 7-(4-methoxyphenyl)-2-methyl-5-phenethylthiazolo[4,5-d]pyridazin-4(5H)-one], the EC50 fell in the range of 3 to 100 µM.

Consider `O=c1c2nc(NCC3CC3)sc2c(-c2ccc(Cl)cc2)nn1CCc1ccccc1` [compound 36, 7-(4-chlorophenyl)-2-(cyclopropylmethylamino)-5-(2-phenylethyl)thiazolo[4,5-d]pyridazin-4-one], for which the EC50 lay in the range of 3 to 100 µM.

The compound `CNC(Cn1nc(-c2ccc(Cl)cc2)c2sc(C)nc2c1=O)c1ccc(Cl)cc1` (centres unmarked) [compound 25, 7-(4-chlorophenyl)-5-(2-(4-chlorophenyl)-2-(methylamino)ethyl)-2-methylthiazolo[4,5-d]pyridazin-4(5H)-one] yielded an EC50 of 3 to 100 µM.

Take `CC(C)n1ccc(-n2nc(-c3ccc(Cl)cc3)c3cc(Cl)c(Cl)cc3c2=O)cc1=O` [compound 11, 6,7-dichloro-4-(4-chlorophenyl)-2-(1-isopropyl-2-oxo-1,2-dihydropyridin-4-yl)phthalazin-1(2H)-one]: the EC50 was 0.5 to 3 µM.

For `CC(=O)N1CCC(n2nc(-c3ccc(Cl)cc3)c3cc(Cl)c(Cl)cc3c2=O)CC1` [compound 13, 2-(1-acetylpiperidin-4-yl)-6,7-dichloro-4-(4-chlorophenyl)phthalazin-1(2H)-one], the EC50 fell in the range of 3 to 100 µM.

`O=c1c2nc(NCCc3ccccc3)sc2c(-c2ccc(Cl)cc2)nn1CCc1ccccc1` [compound 37, 7-(4-chlorophenyl)-5-(2-phenylethyl)-2-(2-phenylethylamino)thiazolo[4,5-d]pyridazin-4-one] yielded an EC50 of 3 to 100 µM.

`CC(C)Oc1cc(-n2nc(-c3ccc(Cl)cc3)c3cc(Cl)c(Cl)cc3c2=O)ccn1` [compound 12, 6,7-dichloro-4-(4-chlorophenyl)-2-(2-isopropoxypyridin-4-yl)phthalazin-1(2H)-one]: the EC50 was 0.5 to 3 µM.

The compound `Cc1cc2c(-c3ccc(Cl)cc3)nn(-c3ccc(C4CC4)nc3)c(=O)c2cc1C` [compound 17, 4-(4-chlorophenyl)-2-(6-cyclopropylpyridin-3-yl)-6,7-dimethylphthalazin-1(2H)-one] came in with an EC50 of 3 to 100 µM.

`Cc1cc2c(-c3ccc(Cl)cc3)nn(-c3ccnc(C4CNC4)c3)c(=O)c2cc1C` [compound 16, 2-(2-(azetidin-3-yl)pyridin-4-yl)-4-(4-chlorophenyl)-6,7-dimethylphthalazin-1(2H)-one]: the EC50 is 0.5 to 3 µM.

As for `Cc1nc2c(=O)n(-c3ccc(OC(F)(F)F)cc3)nc(-c3ccc(Cl)cc3)c2s1` [compound 41, 7-(4-chlorophenyl)-2-methyl-5-(4-(trifluoromethoxy)phenyl)thiazolo[4,5-d]pyridazin-4(5H)-one], the EC50 was 3 to 100 µM.

On to `Cc1nc2c(=O)n(CCc3ccccc3)nc(-c3ccccc3)c2s1` [compound 29, 2-methyl-5-phenethyl-7-phenylthiazolo[4,5-d]pyridazin-4(5H)-one], for which the EC50 is 3 to 100 µM.

On to `Cc1nc2c(=O)n(-c3ccc(C(=O)O)cc3)nc(-c3ccc(Cl)cc3)c2s1` [compound 42, 4-(7-(4-chlorophenyl)-2-methyl-4-oxothiazolo[4,5-d]pyridazin-5(4H)-yl)benzoic acid], for which the EC50 fell in the range of 0.05 to 0.5 µM.

In turn, `Cc1nc2c(=O)n(-c3ccc(C(=O)NC(C)C)cc3)nc(-c3ccc(Cl)cc3)c2s1` [compound 38, 4-(7-(4-chlorophenyl)-2-methyl-4-oxothiazolo[4,5-d]pyridazin-5(4H)-yl)-N-isopropylbenzamide] yielded an EC50 of 3 to 100 µM.

`Cc1cc2c(-c3ccc(Cl)cc3)nn(-c3ccnc(OC4CN(C(=O)OC(C)(C)C)C4)c3)c(=O)c2cc1C` [compound 20, tert-butyl 3-((4-(4-(4-chlorophenyl)-6,7-dimethyl-1-oxophthalazin-2(1H)-yl)pyridin-2-yl)oxy)azetidine-1-carboxylate] displayed an EC50 of 0.5 to 3 µM.

Still in this experiment, the particulars now being: HEK293 cells expressing human TREM2 and DAP12; pSyk AlphaLisa; Table D-2.
With `Cc1cc2c(-c3ccc(F)cc3)nn(-c3ccc(OC(F)(F)F)cc3)c(=O)c2nc1C` [I-121, 5-(4-fluorophenyl)-2,3-dimethyl-7-(4-(trifluoromethoxy)phenyl)pyrido[2,3-d]pyridazin-8 (7H)-one], the EC50 fell in the range of 3 to 100 µM.

With `Cc1cc2c(-c3ccc(Cl)cc3)nn(-c3ccnc(NC4CC(F)(F)C4)c3)c(=O)c2nc1C` [I-117, 5-(4-chlorophenyl)-7-(2-((3,3-difluorocyclobutyl)amino)pyridin-4-yl)-2,3-dimethylpyrido[2,3-d]pyridazin-8 (7H)-one], the EC50 was in the range of 0.5 to 3 µM.

`COc1ccc(-c2nn(-c3ccnc(C4COC4)c3)c(=O)c3cc(C)c(C)cc23)cc1` [I-108, 4-(4-methoxyphenyl)-6,7-dimethyl-2-[2-(oxetan-3-yl)-4-pyridyl]phthalazin-1-one] registered an EC50 of 0.5 to 3 µM.

In turn, `Cc1nc2c(-c3ccc(C(F)(F)F)cc3F)cn([C@H]3CCO[C@@H](c4cnn(C5CC5)c4)C3)c(=O)c2nc1C` [I-123, 6-[(2R,4S)-2-(1-cyclopropyl-1H-pyrazol-4-yl)tetrahydro-2H-pyran-4-yl]-8-[2-fluoro-4-(trifluoromethyl)phenyl]-2,3-dimethylpyrido[3,4-b]pyrazin-5 (6H)-one] came in with an EC50 of 0.5 to 3 µM.

`Cc1cc2c(-c3ccc(Cl)cc3)nn(-c3ccnc(OC4CNC4)c3)c(=O)c2nc1C` [I-94, 7-[2-(azetidin-3-yloxy)-4-pyridyl]-5-(4-chlorophenyl)-2,3-dimethyl-pyrido[2,3-d]pyridazin-8-one; 2,2,2-trifluoroacetic acid] yielded an EC50 of 0.5 to 3 µM.

Take `Cc1cc2c(-c3ccc(Cl)cc3)nn(-c3ccc(NC4COC4)nc3)c(=O)c2nc1C` [I-118, 5-(4-chlorophenyl)-2,3-dimethyl-7-[6-(oxetan-3-ylamino)-3-pyridyl]pyrido [2,3-d]pyridazin-8-one; formic acid]: the EC50 was in the range of 0.5 to 3 µM.

`Cc1cc2c(-c3ccc(Cl)cc3)nn(-c3ccnc(NC4CCOC4)c3)c(=O)c2nc1C` (racemic) [I-113, 5-(4-chlorophenyl)-2,3-dimethyl-7-(2-((tetrahydrofuran-3-yl)amino)pyridin-4-yl)pyrido[2,3-d]pyridazin-8 (7H)-one] had an EC50 of 0.5 to 3 µM.

The compound `Cc1cc2c(-c3ccc(Cl)c(Cl)c3)nn(-c3ccnc(C4COC4)c3)c(=O)c2cc1C` [I-107, 4-(3,4-dichlorophenyl)-6,7-dimethyl-2-[2-(oxetan-3-yl)-4-pyridyl]phthalazin-1-one] gave a half-maximal effective concentration (EC50) of 0.5 to 3 µM.

These data come from patent US20260152484A1, “HETEROCYCLIC COMPOUNDS AS TRIGGERING RECEPTOR EXPRESSED ON MYELOID CELLS 2 AGONISTS” (Vigil Neuroscience, Inc., priority 2021, published 2026).
